Laboratory results as given in patent US20250154144A1 (CHILDREN'S HOSPITAL MEDICAL CENTER, priority 2021, published 2025).
Read-outs that look alike come from different tables or passages of the source. Each block holds one molecule with its values, some of them ahead of it.

Key:
MOLM14 F691L cells = assay: cells; type: cell-based; settings: Homo sapiens, MOLM-14, 48 h, read-out: MOLM14 F691L IC50
FLT3 = biological target: T1, FLT3 (Homo sapiens, UniProt P36888); assay: RBC HotSpot Kinase Assay, FLT3; settings: FLT3 IC50
T1 sequence (P36888 610-943 limits assumed): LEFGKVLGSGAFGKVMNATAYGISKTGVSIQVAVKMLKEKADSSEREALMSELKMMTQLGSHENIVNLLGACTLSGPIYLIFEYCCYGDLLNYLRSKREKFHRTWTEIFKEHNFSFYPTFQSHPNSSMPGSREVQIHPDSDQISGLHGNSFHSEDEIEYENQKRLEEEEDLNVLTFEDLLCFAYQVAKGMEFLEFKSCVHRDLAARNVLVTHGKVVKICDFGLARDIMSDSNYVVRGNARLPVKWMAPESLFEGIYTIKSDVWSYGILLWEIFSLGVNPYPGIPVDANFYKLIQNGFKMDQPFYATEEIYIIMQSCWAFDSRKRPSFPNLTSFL

MOLM14 D835Y cells = assay: cells; type: cell-based; settings: Homo sapiens, MOLM-14, 48 h, 48 hours, Cell Titer Glo; read-out: MOLM14 D835Y IC50
IRAK4 = biological target: T2, IRAK4 (Homo sapiens, UniProt Q9NWZ3); assay: RBC HotSpot Kinase Assay, IRAK4; settings: IRAK4 IC50
T2 sequence (Q9NWZ3 1-460): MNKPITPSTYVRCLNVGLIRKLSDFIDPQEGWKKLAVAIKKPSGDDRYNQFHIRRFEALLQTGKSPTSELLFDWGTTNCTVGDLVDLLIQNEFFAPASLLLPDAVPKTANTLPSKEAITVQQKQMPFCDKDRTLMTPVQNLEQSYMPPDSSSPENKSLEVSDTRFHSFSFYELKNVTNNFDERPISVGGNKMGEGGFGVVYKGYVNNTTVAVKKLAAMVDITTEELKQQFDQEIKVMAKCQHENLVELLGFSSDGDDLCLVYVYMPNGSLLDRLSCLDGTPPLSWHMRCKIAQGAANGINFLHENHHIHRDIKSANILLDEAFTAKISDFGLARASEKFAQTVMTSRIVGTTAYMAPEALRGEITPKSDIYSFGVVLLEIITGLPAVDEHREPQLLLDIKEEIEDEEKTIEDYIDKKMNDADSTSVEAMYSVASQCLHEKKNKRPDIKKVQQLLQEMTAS

IRAK1 = IRAK1 (Homo sapiens, UniProt P51617); assay: RBC HotSpot Kinase Assay, IRAK1; settings: IRAK1 IC50
THP1 cells = assay: Combination drug screening, Cell Titer Glo, 10 × 10 matrix, THP1 cells; type: cell-based; settings: THP1 cells; for Excess HSA Score: 10 × 10
MOLM14(D835Y) cells = type: cell-based; settings: MOLM14(D835Y) cells; for Excess HSA Score: 10 × 10
[1] = combination with (+)-BAY-1251152
[2] = combination with Eprenetapopt/APR-246
[3] = combination with Venetoclax (ABT-199)

Chain of IRAK1 (P51617 whole entry): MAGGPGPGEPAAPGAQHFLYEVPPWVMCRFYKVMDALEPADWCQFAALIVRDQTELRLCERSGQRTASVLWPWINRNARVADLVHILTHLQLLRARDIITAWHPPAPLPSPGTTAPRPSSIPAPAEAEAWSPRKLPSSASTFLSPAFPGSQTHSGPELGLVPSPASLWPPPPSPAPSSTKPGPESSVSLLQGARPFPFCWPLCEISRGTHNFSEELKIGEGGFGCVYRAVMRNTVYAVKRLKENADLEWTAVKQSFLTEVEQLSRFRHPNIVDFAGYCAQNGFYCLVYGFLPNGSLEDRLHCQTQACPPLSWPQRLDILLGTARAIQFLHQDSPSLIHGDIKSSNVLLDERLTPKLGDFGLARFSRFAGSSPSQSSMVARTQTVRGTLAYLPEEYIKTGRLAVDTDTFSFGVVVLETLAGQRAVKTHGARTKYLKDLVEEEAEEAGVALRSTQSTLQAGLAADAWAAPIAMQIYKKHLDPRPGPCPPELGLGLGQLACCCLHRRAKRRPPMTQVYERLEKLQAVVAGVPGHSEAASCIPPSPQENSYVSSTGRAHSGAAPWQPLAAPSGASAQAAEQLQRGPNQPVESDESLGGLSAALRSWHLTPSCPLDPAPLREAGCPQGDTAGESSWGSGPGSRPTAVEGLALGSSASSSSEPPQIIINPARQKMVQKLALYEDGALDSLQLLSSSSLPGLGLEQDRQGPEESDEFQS

SMILES: CC(C)(O)c1ccc2ncc(-c3cncc(N[C@@H]4CCCNC4)n3)n2c1 [Compound 17, (R)-2-(3-(6-(piperidin-3-ylamino)pyrazin-2-yl)imidazo[1,2-a]pyridin-6-yl)propan-2-ol]
IC50 (FLT3): 5 nM
IC50 (IRAK4): 7 nM
IC50 (IRAK1): 105 nM

SMILES: COc1ccn2c(-c3ccnc(N[C@H]4CNCC[C@@H]4F)n3)cnc2c1 [Compound 30, N-((3S,4S)-4-fluoropiperidin-3-yl)-4-(7-methoxyimidazo[1,2-a]pyridin-3-yl)pyrimidin-2-amine]
IC50 (MOLM14 F691L cells): 61 nM
Excess HSA Score (THP1 cells; [1]): −655.1
Excess HSA Score (THP1 cells; combination with AMG-232): −76.43
Excess HSA Score (THP1 cells; combination with AZD-5363): −13.97
Excess HSA Score (THP1 cells; [2]): 389.5
Excess HSA Score (THP1 cells; combination with Ivosidenib): 59.9
Excess HSA Score (THP1 cells; combination with Lenalidomide): −90.11
Excess HSA Score (THP1 cells; combination with Palbociclib): −678.3
Excess HSA Score (THP1 cells; combination with Prednisolone): 188.1
Excess HSA Score (THP1 cells; combination with SNDX-5613): 1.322
Excess HSA Score (THP1 cells; combination with TNO-155): 591.3
Excess HSA Score (THP1 cells; combination with Trametinib): −203.6
Excess HSA Score (THP1 cells; combination with Ulixertinib): −362.3
Excess HSA Score (THP1 cells; [3]): −1632
Comments (THP1 cells; combination with Ivosidenib): Antagonistic
Comments (THP1 cells; combination with SNDX-5613): Additive
Comments (THP1 cells; [3]): Synergistic
Excess HSA Score (MOLM14(D835Y) cells; [1]): −230
Excess HSA Score (MOLM14(D835Y) cells; combination with AMG-232): −524.3
Excess HSA Score (MOLM14(D835Y) cells; combination with AZD-5363): −738.1
Excess HSA Score (MOLM14(D835Y) cells; [2]): −284.6
Excess HSA Score (MOLM14(D835Y) cells; combination with Ivosidenib): −74.07
Excess HSA Score (MOLM14(D835Y) cells; combination with Lenalidomide): 299.3
Excess HSA Score (MOLM14(D835Y) cells; combination with Palbociclib): −448.3
Excess HSA Score (MOLM14(D835Y) cells; combination with Prednisolone): 3.447
Excess HSA Score (MOLM14(D835Y) cells; combination with SNDX-5613): −303.5
Excess HSA Score (MOLM14(D835Y) cells; combination with TNO-155): −922.2
Excess HSA Score (MOLM14(D835Y) cells; combination with Trametinib): −313.7
Excess HSA Score (MOLM14(D835Y) cells; combination with Ulixertinib): 14.83
Excess HSA Score (MOLM14(D835Y) cells; [3]): −1291
Comments (MOLM14(D835Y) cells; combination with Prednisolone): Antagonistic
Comments (MOLM14(D835Y) cells; [3]): Synergistic

SMILES: CC(C)(O)c1ccc2ncc(-c3ccnc(N[C@H]4CNC[C@@H]4F)n3)n2c1 [Compound 40, 2-(3-(2-(((3S,4S)-4-fluoropyrrolidin-3-yl)amino)pyrimidin-4-yl)imidazo[1,2-a]pyridin-6-yl)propan-2-ol]
IC50 (FLT3): < 0.5 nM
IC50 (IRAK4): 1 nM
IC50 (IRAK1): 79 nM

SMILES: CC(C)(O)c1ccc2ncc(-c3ccnc(N[C@@H]4CCCNC4)n3)n2c1 [Compound 41, (R)-2-(3-(2-(piperidin-3-ylamino)pyrimidin-4-yl)imidazo[1,2-a]pyridin-6-yl)propan-2-ol]
IC50 (FLT3): 1 nM
IC50 (IRAK4): 8 nM
IC50 (IRAK1): 124 nM

SMILES: COc1cc2ncc(-c3ccnc(N[C@H]4CNCC[C@@H]4F)n3)n2cc1C(C)(O)C(F)(F)F (stereo partly shown) [Compound 60]
IC50 (FLT3): < 0.5 nM
IC50 (IRAK4): < 0.5 nM
IC50 (IRAK1): < 0.5 nM

Now from value to molecule:

IC50 (MOLM14 F691L cells; 48 hours, Cell Titer Glo): 73 nM
IC50 (FLT3): < 0.5 nM
IC50 (MOLM14 D835Y cells): 37 nM
IC50 (IRAK4): 2 nM
IC50 (IRAK1): 111 nM
SMILES: CC(C)Oc1ccn2c(-c3cncc(N[C@@H]4CCCNC4)n3)cnc2c1 [Compound 1, 6-(7-isopropoxyimidazo[1,2-a]pyridin-3-yl)-N-[(3R)-3-piperidyl]pyrazin-2-amine]

IC50 (FLT3): < 0.5 nM
IC50 (IRAK4): 1 nM
IC50 (IRAK1): 175 nM
SMILES: COc1cc2ncc(-c3cncc(N[C@@H]4CCCNC4)n3)n2nc1C1CC1 [Compound 23, (R)-6-(6-cyclopropyl-7-methoxyimidazo[1,2-b]pyridazin-3-yl)-N-(piperidin-3-yl)pyrazin-2-amine]

IC50 (FLT3): < 0.5 nM
IC50 (IRAK4): 1 nM
IC50 (IRAK1): 13 nM
SMILES: F[C@H]1CNC[C@@H]1Nc1nccc(-c2cnc3cc(OC4CC4)ccn23)n1 [Compound 37, 4-(7-cyclopropoxyimidazo [1,2-a]pyridin-3-yl)-N-((3S,4S)-4-fluoropyrrolidin-3-yl)pyrimidin-2-amine]
